Experimental data published in US12649733B2, “3,6-diamino-pyridazin-3-yl derivatives, pharmaceutical compositions containing them and their uses as pro-apoptotic agents” (LES LABORATOIRES SERVIER, priority 2019, dated 2026).
pIC50, pKi: −log10 of the molar value.

Experiments:
[1] = system: MOLT-4 cells; assay: MOLT-4 cell viability, MTT assay; type: cell-based; settings: Homo sapiens, MOLT-4, 48 h, 48 h exposure
In short: (§1)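 Viability read by MTT reduction (OD 540 nm after overnight SDS/HCl lysis) after 48 h compound treatment of cells in RPMI 1640/10% FBS. Triplicates at nine concentrations, 3.16-fold apart; four-parameter curve fitting yields IC50.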

[2] = system: H146 cells; assay: H146 cell viability, MTT assay; type: cell-based; settings: Homo sapiens, NCI-H146, 48 h, 48 h exposure
In short: as §1

[3] = biological target: T1, Bcl-xL protein (Homo sapiens, UniProt Q07817, N197C); assay: Fluorescence quenching assay (PUMA peptide displacement); type: binding; settings: 1 nM protein, 400 nM peptide, 2 hours at 23° C.; KI determined from IC50
T1 construct: (2-197)[N197C]; His-His (two His8 stretches joined by a Gly/Ala/Ser/Thr linker)
T1 sequence (Q07817 2-197 N197C): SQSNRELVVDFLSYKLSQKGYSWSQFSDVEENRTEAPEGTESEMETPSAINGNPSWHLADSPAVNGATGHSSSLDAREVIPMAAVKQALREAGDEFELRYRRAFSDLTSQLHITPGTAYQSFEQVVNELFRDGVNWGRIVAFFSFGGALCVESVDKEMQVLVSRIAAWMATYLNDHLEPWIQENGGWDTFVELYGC
In short: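 Compounds were tested as an 11-point series in pH 7.4 HEPES/NaCl/Tween buffer with 5% DMSO, 2 h at 23 °C. Cy5-tagged Bcl-xL(2-197, N197C) at 1 nM and quencher-tagged PUMA peptide at 400 nM were used. Competitive binders restore fluorescence (620/680 nm), and IC50 values were converted to KI.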

Structure (SMILES) | pIC50 [1] | pIC50 [2] | pKi [3]
Cc1cc(N(C)c2nc(C(=O)O)c(CCCOc3ccc(C#CCN4CCOCC4)cc3F)s2)nnc1Nc1nc2ccccc2s1 [Example 198, 2-[[6-(1,3-Benzothiazol-2-ylamino)-5-methyl-pyridazin-3-yl]-methyl-amino]-5-[3-[2-fluoro-4-(3-morpholinoprop-1-ynyl)phenoxy]propyl]thiazole-4-carboxylic acid] | 8.80 | 5.85 | 11.14
CNCC#Cc1ccc(OCCCc2sc(N(CCCN(C)C)c3cc(C)c(Nc4nc5ccccc5s4)nn3)nc2C(=O)O)c(F)c1 [Example 200] | 6.16 | 6.94 | 11.11
Cc1cc(N(C)c2nc(C(=O)O)c(CCCOc3ccc(C#CCN4CCCC4)cc3F)s2)nnc1Nc1nc2ccccc2s1 [Example 203, 2-[[6-(1,3-Benzothiazol-2-ylamino)-5-methyl-pyridazin-3-yl]-methyl-amino]-5-[3-[2-fluoro-4-(3-pyrrolidin-1-ylprop-1-ynyl)phenoxy]propyl]thiazole-4-carboxylic acid] | 9.12 | 8.41 | 11.66
Cc1cc(N(C)c2nc(C(=O)O)c(CCCOc3ccc(C#CCN4CCCCC4)cc3F)s2)nnc1Nc1nc2ccccc2s1 [Example 204, 2-[[6-(1,3-Benzothiazol-2-ylamino)-5-methyl-pyridazin-3-yl]-methyl-amino]-5-[3-[2-fluoro-4-[3-(1-piperidyl)prop-1-ynyl]phenoxy]propyl]thiazole-4-carboxylic acid] | 9.15 | 8.14 | 11.22
Cc1cc(N(C)c2nc(C(=O)O)c(CCCOc3ccc(C#CC(C)N(C)C)cc3F)s2)nnc1Nc1nc2ccccc2s1 (stereo not drawn) [Example 205, 2-[[6-(1,3-Benzothiazol-2-ylamino)-5-methyl-pyridazin-3-yl]-methyl-amino]-5-[3-[4-[3-(dimethylamino)but-1-ynyl]-2-fluoro-phenoxy]propyl]thiazole-4-carboxylic acid] | 9.43 | ≥ 8.23 | 11.64
CNCC#Cc1ccc(OCCCc2sc(N(CCCCC[N+](C)(C)CCCS(=O)(=O)[O-])c3cc(C)c(Nc4nc5ccccc5s4)nn3)nc2C(=O)O)c(F)c1 [Example 212, 3-[5-[[6-(1,3-Benzothiazol-2-ylamino)-5-methyl-pyridazin-3-yl]-[4-carboxy-5-[3-[2-fluoro-4-[3-(methylamino)prop-1-ynyl]phenoxy]propyl]thiazol-2-yl]amino]pentyl-dimethyl-ammonio]propane-1-sulfonate] | 5.54 | 5.49 | 12.00
Cc1cc(N(C)c2nc(C(=O)O)c(CCCOc3ccc(CCCN(C)C)cc3F)s2)nnc1Nc1nc2ccccc2s1 [Example 214, 2-[[6-(1,3-Benzothiazol-2-ylamino)-5-methyl-pyridazin-3-yl]-methyl-amino]-5-[3-[4-[3-(dimethylamino)propyl]-2-fluoro-phenoxy]propyl]thiazole-4-carboxylic acid] | 7.65 | 7.57 | 11.40
Cc1cc(N(CCCC(O)C[N+]23CCC(CC2)CC3)c2nc(C(=O)[O-])c(CCCOc3ccc(C#CCN(C)C)cc3F)s2)nnc1Nc1nc2ccccc2s1 (stereo not drawn) [Example 215, 2-[[6-(1,3-Benzothiazol-2-ylamino)-5-methyl-pyridazin-3-yl]-(4-hydroxy-5-quinuclidin-1-ium-1-yl-pentyl)amino]-5-[3-[4-[3-(dimethylamino)prop-1-ynyl]-2-fluoro-phenoxy]propyl]thiazole-4-carboxylate] | 6.39 | 6.76 | 11.51
Cc1cc(N(CCCC(O)C[N+]23CCN(CC2)CC3)c2nc(C(=O)[O-])c(CCCOc3ccc(C#CCN(C)C)cc3F)s2)nnc1Nc1nc2ccccc2s1 (stereo not drawn) [Example 216, 2-[[5-(1-aza-4-azoniabicyclo[2.2.2]octan-4-yl)-4-hydroxy-pentyl]-[6-(1,3-benzothiazol-2-ylamino)-5-methyl-pyridazin-3-yl]amino]-5-[3-[4-[3-(dimethylamino)prop-1-ynyl]-2-fluoro-phenoxy]propyl]thiazole-4-carboxylate] | 6.84 | 6.65 | 11.40
Cc1cc(N(CCCC(O)C[N+]2(C)CCOCC2)c2nc(C(=O)[O-])c(CCCOc3ccc(C#CCN(C)C)cc3F)s2)nnc1Nc1nc2ccccc2s1 (stereo not drawn) [Example 217, 2-[[6-(1,3-Benzothiazol-2-ylamino)-5-methyl-pyridazin-3-yl]-[4-hydroxy-5-(4-methylmorpholin-4-ium-4-yl)pentyl]amino]-5-[3-[4-[3-(dimethylamino)prop-1-ynyl]-2-fluoro-phenoxy]propyl]thiazole-4-carboxylate] | 6.74 | 7.06 | 11.39
Cc1cc(N(CCCC(O)C[N+]2(C)CCN(C)CC2)c2nc(C(=O)[O-])c(CCCOc3ccc(C#CCN(C)C)cc3F)s2)nnc1Nc1nc2ccccc2s1 (stereo not drawn) [Example 221, 2-[[6-(1,3-Benzothiazol-2-ylamino)-5-methyl-pyridazin-3-yl]-[5-(1,4-dimethylpiperazin-1-ium-1-yl)-4-hydroxy-pentyl]amino]-5-[3-[4-[3-(dimethylamino)prop-1-ynyl]-2-fluoro-phenoxy]propyl]thiazole-4-carboxylate] | 7.53 | 7.03 | 11.77

Continued, values first:

pIC50 [1] | pIC50 [2] | pKi [3] | Structure (SMILES)
6.28 | 6.28 | 11.74 | Cc1cc(N(CCCCCNCCCN2CCN(C)CC2)c2nc(C(=O)O)c(CCCOc3ccc(C#CCN(C)C)cc3F)s2)nnc1Nc1nc2ccccc2s1 [Example 195, 2-[[6-(1,3-Benzothiazol-2-ylamino)-5-methyl-pyridazin-3-yl]-[5-[3-(4-methylpiperazin-1-yl)propylamino]pentyl]amino]-5-[3-[4-[3-(dimethylamino)prop-1-ynyl]-2-fluoro-phenoxy]propyl]thiazole-4-carboxylic acid]
7.59 | 7.19 | 12.00 | CNCC#Cc1ccc(OCCCc2sc(N(CCCCCCN(C)C)c3cc(C)c(Nc4nc5ccccc5s4)nn3)nc2C(=O)O)c(F)c1 [Example 199, 2-[[6-(1,3-Benzothiazol-2-ylamino)-5-methyl-pyridazin-3-yl]-[6-(dimethylamino)hexyl]amino]-5-[3-[2-fluoro-4-[3-(methylamino)prop-1-ynyl]phenoxy]propyl]thiazole-4-carboxylic acid]
6.38 | 7.12 | 11.72 | CNCC#Cc1ccc(OCCCc2sc(N(CC[N+](C)(C)C)c3cc(C)c(Nc4nc5ccccc5s4)nn3)nc2C(=O)[O-])c(F)c1 [Example 201, 2-[[6-(1,3-Benzothiazol-2-ylamino)-5-methyl-pyridazin-3-yl]-[2-(trimethylammonio)ethyl]amino]-5-[3-[2-fluoro-4-[3-(methylamino)prop-1-ynyl]phenoxy]propyl]thiazole-4-carboxylate]
5.48 | 5.97 | 11.43 | CNCC#Cc1ccc(OCCCc2sc(N(CCN(C)C)c3cc(C)c(Nc4nc5ccccc5s4)nn3)nc2C(=O)O)c(F)c1 [Example 207, 2-[[6-(1,3-Benzothiazol-2-ylamino)-5-methyl-pyridazin-3-yl]-[2-(dimethylamino)ethyl]amino]-5-[3-[2-fluoro-4-[3-(methylamino)prop-1-ynyl]phenoxy]propyl]thiazole-4-carboxylic acid]
6.32 | 7.18 | 11.19 | Cc1cc(N(CCCC(O)C[N+](C)(C)C)c2nc(C(=O)[O-])c(CCCOc3ccc(C#CCN(C)C)cc3F)s2)nnc1Nc1nc2ccccc2s1 (stereo not drawn) [Example 211, 2-[[6-(1,3-Benzothiazol-2-ylamino)-5-methyl-pyridazin-3-yl]-[4-hydroxy-5-(trimethylammonio)pentyl]amino]-5-[3-[4-[3-(dimethylamino)prop-1-ynyl]-2-fluoro-phenoxy]propyl]thiazole-4-carboxylate]
7.03 | 7.14 | 11.82 | CNCC#Cc1ccc(OCCCc2sc(N(CCCCCN(C)C)c3cc(C)c(Nc4nc5ccccc5s4)nn3)nc2C(=O)O)c(F)c1 [Example 213, 2-[[6-(1,3-Benzothiazol-2-ylamino)-5-methyl-pyridazin-3-yl]-[5-(dimethylamino)pentyl]amino]-5-[3-[2-fluoro-4-[3-(methylamino)prop-1-ynyl]phenoxy]propyl]thiazole-4-carboxylic acid]
6.57 | 6.05 | 11.92 | Cc1cc(N(C)c2nc(C(=O)O)c(CCCOc3ccc(C#CCNCC[N+](C)(C)CCCS(=O)(=O)[O-])cc3F)s2)nnc1Nc1nc2ccccc2s1 [Example 218, 3-[2-[3-[4-[3-[2-[[6-(1,3-Benzothiazol-2-ylamino)-5-methyl-pyridazin-3-yl]-methyl-amino]-4-carboxy-thiazol-5-yl]propoxy]-3-fluoro-phenyl]prop-2-ynylamino]ethyl-dimethyl-ammonio]propane-1-sulfonate]
6.01 | 6.66 | 11.46 | Cc1cc(N(CCCC(O)C[N+]2(C)CCCCC2)c2nc(C(=O)[O-])c(CCCOc3ccc(C#CCN(C)C)cc3F)s2)nnc1Nc1nc2ccccc2s1 (stereo not drawn) [Example 220, 2-[[6-(1,3-Benzothiazol-2-ylamino)-5-methyl-pyridazin-3-yl]-[4-hydroxy-5-(1-methylpiperidin-1-ium-1-yl)pentyl]amino]-5-[3-[4-[3-(dimethylamino)prop-1-ynyl]-2-fluoro-phenoxy]propyl]thiazole-4-carboxylate]
